Results reported in US20050222234A1, “Mucin production inhibitor” (TAIHO PHARMACEUTICAL CO., LTD., priority 2004, published 2005).

What was measured:
NCI-H292 cells = experiment: Mucin production inhibitory action (EGF-stimulated, mucin ELISA of culture supernatant); assay type: cell-based, human; conditions: for Effect on production of mucin (in words): 1-10 μM, EGF-stimulated NCI-H292 cells
Protocol: Mucin Production Inhibitory Action
The test was carried out in accordance with a partially modified method of Takeyama et al. (Proc. Natl. Acad. Sci. USA, Vol. 96, P. 3081-3086, 1999). The specific procedure will be described as follows. NCI-H292 cells, which are human respiratory tract epithelial cell lines, were suspended in a 10% FCS-containing RPMI 1640-culture medium, and disseminated to a 12-well culture plate so that the cell concentration of each well was adjusted to 2×10^5 cell/well, followed by culturing for two days. Subsequently, the culture medium was changed to a 0.2% FCS-containing RPMI culture medium, followed by culturing for another two days. The thus-cultured cells were employed in the test. Each test drug and EGF (25 ng/mL) were added to each well, and the mucin level of the supernatant of the culture 48 hours after initiation of culturing was determined through the ELISA method. Percent inhibition (%) with regard to control value was calculated by supposing the difference produced by subtracting normal value from control value to be 100%. In this case, the control value is defined as the mucin amount in the culture supernatant to which only EGF was added, while the normal value is defined as the muchin amount in the culture supernatant containing neither of test drug and EGF. In addition, cilomilast (J. Pharmacol. Exp. Ther., Vol. 284, p. 420-426, 1998) and roflumilast (J. Pharmacol. Exp. Ther., Vol. 297, p. 267-279, 2001), which are typical phosphodiesterase (IV) inhibitors were also tested in a similar manner.

Lewis Wistar rats = experiment: Inhibitory effect on hyperplasia of goblet cells in the respiratory tract epithelium (Sephadex-induced, PAS staining); assay type: in vivo, rat; conditions: oral, once per day for seven days; Sephadex i.v.; ratio of PAS-positive area
Protocol: (Welch test), the value in each parenthesis represents percent inhibition (%)
The test was carried out in accordance with a partially modified method of Matsubara et al. (Int. Arch. Allergy Immunol., Vol. 116, p. 67-75, 1998). The specific procedure will be described as follows. To each of the 7-week old male Lewis Wistar rats, a Sephadex suspension (0.1. mg/mL/head) was intravenously administered (total three times: day 0, 2, and 5). Two days after the final administration, the rat was slaughtered by exsanguination under anesthetic with pentobarbital. The lung-tissue was extirpated from the rat and immersed in a neutral formalin buffer for fixation. […] The ratio of the PAS-stained positive area to the respiratory tract epithelium was calculated by use of an image analysis software (Winroof). Each test compound was suspended in 0.5% hydroxypropylmethyl cellulose (HPMC), and the suspension-was orally administered once per day for continuous seven days from the start of administration of Sephadex. In the Figure, numerical data are represented by mean value±standard deviation (each group: 11-12 samples).

With `COc1ccc([C@]2(C#N)CC[C@@H](C(=O)O)CC2)cc1OC1CCCC1` [Cilomilast, cilomilast, reference compound] the “Effect on production of mucin (in words)” value (NCI-H292 cells) was “promoted production of mucin”.

In the case of `COc1ccc(-c2nc3cc(-n4cncn4)ccc3[nH]2)cc1OCC1CC1` [Compound 1], the “Effect on hyperplasia of goblet cells (in words, FIG. 1)” value (Lewis Wistar rats) is reported as “inhibitory effect”.

Compound `CCC(CC)Oc1cc(-c2nc3cc(-n4cncn4)ccc3[nH]2)ccc1OC` [Compound 5] has an inhibition at 1 µM (NCI-H292 cells; Homo sapiens, NCI-H292, 1 μM test drug, EGF 25 ng/mL, supernatant after 48 hours, read-out: Percent inhibition of mucin production (%)) of 15.4%, an inhibition at 3 µM (NCI-H292 cells; Homo sapiens, NCI-H292, 3 μM test drug, EGF 25 ng/mL, supernatant after 48 hours, read-out: Percent inhibition of mucin production (%)) of 40.2% and an inhibition at 10 µM (NCI-H292 cells; Homo sapiens, NCI-H292, 10 μM test drug, EGF 25 ng/mL, supernatant after 48 hours, read-out: Percent inhibition of mucin production (%)) of 65.9%.

With `O=C(Nc1c(Cl)cncc1Cl)c1ccc(OC(F)F)c(OCC2CC2)c1` [Roflumilast, roflumilast, reference compound] the “Effect on production of mucin (in words)” value (NCI-H292 cells) was “promoted production of mucin”.
